This note sets out measurements from US9212182B2, “Bicyclic sulfonamide compounds as sodium channel inhibitors” (AMGEN INC., priority 2013, dated 2015).

Chain of Nav 1.7 (Q15858 whole entry): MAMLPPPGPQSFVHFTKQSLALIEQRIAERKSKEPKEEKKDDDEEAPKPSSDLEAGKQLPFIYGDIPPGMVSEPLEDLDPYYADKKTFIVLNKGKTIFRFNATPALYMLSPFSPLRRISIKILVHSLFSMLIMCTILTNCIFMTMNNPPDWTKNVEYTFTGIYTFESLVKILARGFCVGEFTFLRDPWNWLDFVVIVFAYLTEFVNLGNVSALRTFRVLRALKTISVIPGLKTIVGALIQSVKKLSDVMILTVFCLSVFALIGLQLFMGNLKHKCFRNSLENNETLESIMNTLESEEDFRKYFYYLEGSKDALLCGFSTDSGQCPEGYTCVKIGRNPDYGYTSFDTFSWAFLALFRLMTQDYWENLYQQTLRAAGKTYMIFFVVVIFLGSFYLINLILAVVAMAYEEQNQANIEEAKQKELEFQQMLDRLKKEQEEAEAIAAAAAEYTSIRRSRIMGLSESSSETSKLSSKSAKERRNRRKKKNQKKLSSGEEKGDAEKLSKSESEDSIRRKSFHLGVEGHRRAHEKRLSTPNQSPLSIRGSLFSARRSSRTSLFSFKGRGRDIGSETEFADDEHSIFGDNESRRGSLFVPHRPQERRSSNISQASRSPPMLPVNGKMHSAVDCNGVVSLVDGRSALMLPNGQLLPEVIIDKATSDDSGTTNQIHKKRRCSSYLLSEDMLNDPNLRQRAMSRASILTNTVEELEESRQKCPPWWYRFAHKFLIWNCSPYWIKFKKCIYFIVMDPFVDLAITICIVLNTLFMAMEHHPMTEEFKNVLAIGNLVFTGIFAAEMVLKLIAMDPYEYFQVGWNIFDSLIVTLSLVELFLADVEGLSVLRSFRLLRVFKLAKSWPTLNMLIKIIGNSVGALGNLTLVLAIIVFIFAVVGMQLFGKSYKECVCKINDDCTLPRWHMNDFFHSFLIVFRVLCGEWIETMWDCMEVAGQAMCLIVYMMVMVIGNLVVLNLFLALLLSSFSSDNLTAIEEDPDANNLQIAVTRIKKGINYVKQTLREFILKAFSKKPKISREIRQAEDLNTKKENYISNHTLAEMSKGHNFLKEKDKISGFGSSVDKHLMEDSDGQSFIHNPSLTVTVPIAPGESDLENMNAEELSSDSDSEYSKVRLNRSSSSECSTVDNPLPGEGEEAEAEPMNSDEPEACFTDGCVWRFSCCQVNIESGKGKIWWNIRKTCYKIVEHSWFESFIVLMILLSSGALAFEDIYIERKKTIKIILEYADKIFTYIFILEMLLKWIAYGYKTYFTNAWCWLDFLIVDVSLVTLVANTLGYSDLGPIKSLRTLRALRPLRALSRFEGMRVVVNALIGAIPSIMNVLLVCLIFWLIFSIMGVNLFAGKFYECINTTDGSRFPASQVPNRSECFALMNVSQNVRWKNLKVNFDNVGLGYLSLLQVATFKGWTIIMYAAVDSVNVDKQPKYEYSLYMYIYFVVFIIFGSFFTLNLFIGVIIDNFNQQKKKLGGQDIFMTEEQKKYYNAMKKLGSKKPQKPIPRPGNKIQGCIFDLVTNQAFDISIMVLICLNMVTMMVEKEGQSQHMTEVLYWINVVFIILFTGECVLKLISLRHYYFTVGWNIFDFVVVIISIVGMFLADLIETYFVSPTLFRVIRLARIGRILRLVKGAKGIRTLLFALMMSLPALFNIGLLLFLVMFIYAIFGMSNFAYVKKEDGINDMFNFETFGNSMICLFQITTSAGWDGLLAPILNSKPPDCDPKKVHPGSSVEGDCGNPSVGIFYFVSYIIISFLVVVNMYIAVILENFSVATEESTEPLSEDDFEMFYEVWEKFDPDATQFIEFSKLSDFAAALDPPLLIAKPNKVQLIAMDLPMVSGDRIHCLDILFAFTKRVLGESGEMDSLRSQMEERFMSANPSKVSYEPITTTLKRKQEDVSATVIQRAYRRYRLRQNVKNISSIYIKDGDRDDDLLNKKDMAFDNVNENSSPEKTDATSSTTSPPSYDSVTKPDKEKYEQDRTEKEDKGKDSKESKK

The first assay has as its target Nav 1.7 (Homo sapiens (Human), UniProt Q15858). Briefly: in-vitro Nav 1.7 PX (IC50).
Details: not given
Type of assay: cell-based.
Turning to `COc1nc(C2CC2)c(Cl)cc1-n1c(=O)ccc2cc(S(=O)(=O)Nc3ccon3)ccc21` (atropisomer, axis not shown; (M)) [Example 1229, (M)-1-(5-chloro-6-cyclopropyl-2-methoxy-3-pyridinyl)-N-3-isoxazolyl-2-oxo-1,2-dihydro-6-quinolinesulfonamide], half-maximal inhibition (IC50) required 17200 nM.

For `COc1cc(-c2cccc(Cl)c2)cc(F)c1-n1c(=O)ccc2cc(S(=O)(=O)Nc3ccon3)ccc21` (atropisomer, axis not shown; (P)) [Example 320, (P)-1-(3′-chloro-3-fluoro-5-methoxy-4-biphenylyl)-N-3-isoxazolyl-2-oxo-1,2-dihydro-6-quinolinesulfonamide], the IC50 is 141 nM.

`COc1cc(-c2cccc(Cl)c2)c(C)cc1-n1c(=O)ccc2cc(S(=O)(=O)Nc3ncccn3)ccc21` (atropisomer, axis not shown; (P)) [Example 321, (P)-1-(3′-chloro-5-methoxy-2-methyl-4-biphenylyl)-2-oxo-N-2-pyrimidinyl-1,2-dihydro-6-quinolinesulfonamide] had an IC50 of 10 nM.

With `COc1cc(-c2cc(F)cc(Cl)c2)c(F)cc1-n1c(=O)ccc2cc(S(=O)(=O)Nc3ncon3)ccc21` (atropisomer, axis not shown; (P)) [Example 326, (P)-1-(3′-chloro-2,5′-difluoro-5-methoxy-4-biphenylyl)-N-1,2,4-oxadiazol-3-yl-2-oxo-1,2-dihydro-6-quinolinesulfonamide], the IC50 is 5 nM.

`COc1cc(-c2cccc(F)c2)c(Cl)cc1-n1c(=O)ccc2cc(S(=O)(=O)Nc3ncccn3)ccc21` (atropisomer, axis not shown; (P)) [Example 355, (P)-1-(2-chloro-3′-fluoro-5-methoxy-[1,1′-biphenyl]-4-yl)-2-oxo-N-(pyrimidin-2-yl)-1,2-dihydroquinoline-6-sulfonamide]: 31 nM corresponded to half-maximal inhibition (IC50).

In the case of `COc1cc(-c2cccc(F)c2)c(Cl)cc1-n1c(=O)ccc2cc(S(=O)(=O)Nc3ccon3)c(F)cc21` (atropisomer, axis not shown; (P)) [Example 358, (P)-1-(2-chloro-3′-fluoro-5-methoxy-[1,1′-biphenyl]-4-yl)-7-fluoro-N-(isoxazol-3-yl)-2-oxo-1,2-dihydroquinoline-6-sulfonamide], half-maximal inhibition (IC50) required 4660 nM.

In turn, `COc1ccc(-c2cccc(C(F)(F)F)c2)cc1-n1c(=O)ccc2cc(S(=O)(=O)Nc3ccon3)ccc21` (atropisomer, axis not shown; (P)) [Example 381, (P)—N-3-isoxazolyl-1-(4-methoxy-3′-(trifluoromethyl)-3-biphenylyl)-2-oxo-1,2-dihydro-6-quinolinesulfonamide] had an IC50 of 15 nM.

Compound `CCOc1cc(-c2cccc(F)c2)c(F)cc1-n1c(=O)ccc2cc(S(=O)(=O)Nc3ccon3)ccc21` (atropisomer, axis not shown; (P)) [Example 388, (P)-1-(5-ethoxy-2,3′-difluoro-[1,1′-biphenyl]-4-yl)-N-(isoxazol-3-yl)-2-oxo-1,2-dihydroquinoline-6-sulfonamide] had an IC50 of 48 nM.

The compound `Cc1cc(-c2cccc(F)c2)c(F)cc1-n1c(=O)ccc2cc(S(=O)(=O)Nc3ccon3)ccc21` (atropisomer, axis not shown; (P)) [Example 390, (P)-1-(2,3′-difluoro-5-methyl-[1,1′-biphenyl]-4-yl)-N-(isoxazol-3-yl)-2-oxo-1,2-dihydroquinoline-6-sulfonamide] yielded an IC50 of 100 nM.

For the compound `COc1cc(-c2ccc(Cl)c(C)c2)c(F)cc1-n1c(=O)c(OC)cc2cc(S(=O)(=O)Nc3ccon3)ccc21` (atropisomer, axis not shown; (P)) [Example 414, (P)-1-(4′-chloro-2-fluoro-5-methoxy-3′-methyl-[1,1′-biphenyl]-4-yl)-N-(isoxazol-3-yl)-3-methoxy-2-oxo-1,2-dihydroquinoline-6-sulfonamide], the IC50 is 13 nM.

`COc1cc(Br)c(C)cc1-n1c(=O)ccc2cc(S(=O)(=O)Nc3ccon3)ccc21` (atropisomer, axis not shown; (P)) [Example 415, (P)-1-(4-bromo-2-methoxy-5-methylphenyl)-N-3-isoxazolyl-2-oxo-1,2-dihydro-6-quinolinesulfonamide] registered an IC50 of 269 nM.

With `COc1cc(-c2cc(F)cc(Cl)c2)c(C)cc1-n1c(=O)ccc2cc(S(=O)(=O)Nc3ccon3)ccc21` (atropisomer, axis not shown; (P)) [Example 417, (P)-1-(3′-chloro-5′-fluoro-5-methoxy-2-methyl-4-biphenylyl)-N-3-isoxazolyl-2-oxo-1,2-dihydro-6-quinolinesulfonamide], the IC50 amounted to 9 nM.

In the case of `COc1cc(-c2ccc(Cl)c(C)c2)c(C)cc1-n1c(=O)ccc2cc(S(=O)(=O)Nc3ccon3)ccc21` (atropisomer, axis not shown; (P)) [Example 421, (P)-1-(4′-chloro-5-methoxy-2,3′-dimethyl-4-biphenylyl)-N-3-isoxazolyl-2-oxo-1,2-dihydro-6-quinolinesulfonamide], the IC50 was determined as 16 nM.

Turning to `COc1cc(-c2cc(F)cnc2OC)c(C)cc1-n1c(=O)ccc2cc(S(=O)(=O)Nc3ccon3)ccc21` (atropisomer, axis not shown; (P)) [Example 426, (P)-1-(4-(5-fluoro-2-methoxy-3-pyridinyl)-2-methoxy-5-methylphenyl)-N-3-isoxazolyl-2-oxo-1,2-dihydro-6-quinolinesulfonamide], the IC50 was found to be 63 nM.

Consider `COc1cc(-c2cccc(F)c2)c(C)cc1-n1c(=O)ccc2cc(S(=O)(=O)Nc3ccon3)ccc21` (atropisomer, axis not shown; (P)) [Example 427, (P)-1-(3′-fluoro-5-methoxy-2-methyl-4-biphenylyl)-N-3-isoxazolyl-2-oxo-1,2-dihydro-6-quinolinesulfonamide], for which the IC50 was found to be 25 nM.

Compound `COc1cc(-c2cc(F)cc(Cl)c2)ccc1-n1c(=O)ccc2cc(S(=O)(=O)Nc3ccon3)ccc21` (atropisomer, axis not shown; (P)) [Example 430, (P)-1-(3′-chloro-5′-fluoro-3-methoxy-4-biphenylyl)-N-3-isoxazolyl-2-oxo-1,2-dihydro-6-quinolinesulfonamide] displayed an IC50 of 12 nM.

In turn, `COc1cc(-c2ccc(Cl)c(C)c2)ccc1-n1c(=O)ccc2cc(S(=O)(=O)Nc3ccon3)ccc21` (atropisomer, axis not shown; (P)) [Example 432, (P)-1-(4′-chloro-3-methoxy-3′-methyl-4-biphenylyl)-N-3-isoxazolyl-2-oxo-1,2-dihydro-6-quinolinesulfonamide] showed an IC50 of 9 nM.

The compound `COc1cc(-c2cc(F)cc(Cl)c2)c(C#N)cc1-n1c(=O)ccc2cc(S(=O)(=O)Nc3ccon3)ccc21` (atropisomer, axis not shown; (P)) [Example 433, (P)-1-(3′-chloro-2-cyano-5′-fluoro-5-methoxy-4-biphenylyl)-N-3-isoxazolyl-2-oxo-1,2-dihydro-6-quinolinesulfonamide] yielded an IC50 of 10 nM.

The assay is the same for the next values; noted with them: in-vitro Nav 1.7 PX data.
Consider `COc1cc(Cl)c(-c2cc(F)cc(Cl)c2)cc1-n1c(=O)ccc2cc(S(=O)(=O)Nc3ccon3)ccc21` (atropisomer, axis not shown; (M)) [Example 615, (M)-1-(3′,6-dichloro-5′-fluoro-4-methoxy-3-biphenylyl)-N-3-isoxazolyl-2-oxo-1,2-dihydro-6-quinolinesulfonamide], for which the 50% inhibitory concentration (IC50) was 10800 nM.

Regarding `Cc1cc(-c2cc(C)c(-n3c(=O)ccc4cc(S(=O)(=O)Nc5ncccn5)ccc43)cc2F)ccc1Cl` (atropisomer, axis not shown; (M)) [Example 650, (M)-1-(4′-chloro-2-fluoro-3′,5-dimethyl-4-biphenylyl)-2-oxo-N-2-pyrimidinyl-1,2-dihydro-6-quinolinesulfonamide], the half-maximal inhibitory concentration (IC50) is 3800 nM.

As for `COc1nc(-c2cc(F)cc(F)c2)c(Cl)cc1-n1c(=O)ccc2cc(S(=O)(=O)Nc3ccon3)ccc21` (atropisomer, axis not shown; (M)) [Example 666, (M)-1-(5-chloro-6-(3,5-difluorophenyl)-2-methoxy-3-pyridinyl)-N-3-isoxazolyl-2-oxo-1,2-dihydro-6-quinolinesulfonamide], the IC50 amounted to 1060 nM.

Still in this assay, the particulars now being: in-vitro PatchXpress (PX).
`COc1cc(-c2ccc(F)c(Cl)c2)c(F)cc1-n1c(=O)ccc2cc(S(=O)(=O)Nc3ccon3)ccc21` (atropisomer, axis not shown; (P)) [Example 365, (P)-1-(3′-chloro-2,4′-difluoro-5-methoxy-4-biphenylyl)-N-3-isoxazolyl-2-oxo-1,2-dihydro-6-quinolinesulfonamide] returned an IC50 of 9 nM.

`COc1cc(-c2ccc(Cl)c(C)c2)c(Cl)cc1-n1c(=O)ccc2cc(S(=O)(=O)Nc3ccncn3)ccc21` (atropisomer, axis not shown; (P)) [Example 367, (P)-1-(2,4′-dichloro-5-methoxy-3′-methyl-4-biphenylyl)-2-oxo-N-4-pyrimidinyl-1,2-dihydro-6-quinolinesulfonamide]: the IC50 came to 3 nM.

As to `COc1cc(-c2cccc(C(F)(F)F)c2)ccc1-n1c(=O)ccc2cc(S(=O)(=O)Nc3cccnn3)ccc21` (atropisomer, axis not shown; (P)) [Example 369, (P)-1-(3-methoxy-3′-(trifluoromethyl)-4-biphenylyl)-2-oxo-N-3-pyridazinyl-1,2-dihydro-6-quinolinesulfonamide], the IC50 amounted to 16 nM.

As to `COc1cc(-c2ccc(Cl)c(C)c2)ccc1-n1c(=O)ccc2cc(S(=O)(=O)Nc3cccnn3)ccc21` (atropisomer, axis not shown; (P)) [Example 371, (P)-1-(4′-chloro-3-methoxy-3′-methyl-4-biphenylyl)-2-oxo-N-3-pyridazinyl-1,2-dihydro-6-quinolinesulfonamide], 4360 nM corresponded to half-maximal inhibition (IC50).

`COc1cc(-c2cncc(Cl)c2)c(F)cc1-n1c(=O)ccc2cc(S(=O)(=O)Nc3ccon3)ccc21` (atropisomer, axis not shown; (P)) [Example 408, (P)-1-(4-(5-chloro-3-pyridinyl)-5-fluoro-2-methoxyphenyl)-N-3-isoxazolyl-2-oxo-1,2-dihydro-6-quinolinesulfonamide] registered an IC50 of 8040 nM.

The IC50 is the point on the concentration scale where inhibition reaches its midpoint. Read a low IC50 as greater potency in that assay.
